Literature values as cited in patent US20190038644A1, “PREPARATION FOR NASAL-NASOPHARYNGEAL TREATMENT” (priority 2017, published 2019).

Tests used:
[1] = system: E. Coli and other bacteria; conditions: versus fructose in cranberries
[2] = not metabolized like other sugars, does not alter blood sugar levels
[3] = system: E. coli adherence to human uroepithelial cells; conditions: addition of 2.5% D-mannose to E. coli uroepithelial cell suspensions; even when epithelial cells highly receptive

Structure (SMILES): O=C[C@@H](O)[C@@H](O)[C@H](O)[C@H](O)CO [D-mannose]
- activity in inhibiting adherence relative to the fructose in cranberries [1]: 10 times
- entry into blood stream [2]: does not enter the blood stream
- inhibition of adherence of E. coli to uroepithelial cells [3]: completely inhibited adherence
